Test systems include A498; CAKI-1; COLO 205; HCT-15; HL-60; HT-29; K562; OVCAR-3; OVCAR-4; OVCAR-8; RPMI-8226; SF-268; SF-539; SNB-75; SNB-78; UACC-257; HOP-92.
Test in all cases: NCI tumour cell line growth inhibition, 48 h

Each structure is given as a SMILES string.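 All cell lines were grown in 96-well plates and treated with compound for 48 hours. GI50: concentration for 50% inhibition of growth.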 Calls of active or inactive are those of the source. No stated cut-off is given here; in the data, active = GI50 up to about 1.1 µM and inactive = higher.

For the compound `CCc1ccccc1NC(=O)/C(=N/O)C(C)=O`, the GI50 is > 100 µM (inactive) in the assay on A498; > 100 µM (inactive) in the assay on CAKI-1; > 100 µM (inactive) in the assay on COLO 205; > 100 µM in the assay on HCT-15; > 100 µM (inactive) in the assay on HL-60; > 100 µM (inactive) in the assay with HT-29. Also, the GI50 in the assay on K562, in the assay on OVCAR-3, in the assay with OVCAR-4, in the assay on OVCAR-8, with RPMI-8226 and with SF-268 was > 100 µM (inactive) throughout. In addition, the GI50 in the assay on SF-539, in the assay on SNB-75, in the assay with SNB-78 and in the assay on UACC-257 was > 100 µM (inactive) in each case.
Turning to `COc1cccc(NC(=O)CC(=O)N2NC(C)C(/N=N/c3cccc(C(=O)O)c3)C2=O)c1` (configuration not stated), the GI50 with A498, in the assay with CAKI-1, with COLO 205, with HOP-92, with HT-29 and in the assay on K562 was > 100 µM (inactive) throughout. In addition, the GI50 in the assay with OVCAR-3, in the assay with OVCAR-4, in the assay on OVCAR-8, with RPMI-8226, in the assay with SF-268 and in the assay on SF-539 was > 100 µM (inactive) in each case. The GI50 in the assay with SNB-75, in the assay with SNB-78 and with UACC-257 was > 100 µM (inactive) in each case.
Take `CC1(C)N=C(c2ccccn2)C(c2ccccn2)=NC1(C)C`: the GI50 with A498 was > 100 µM (inactive); with CAKI-1 it was > 100 µM (inactive); in the assay on COLO 205 it was > 100 µM (inactive); in the assay with HCT-15 it was > 100 µM; with HL-60, > 100 µM (inactive); in the assay on HOP-92 it was > 100 µM (inactive). Further, the GI50 in the assay on HT-29, in the assay with K562, in the assay on OVCAR-3, with OVCAR-4, in the assay on OVCAR-8 and in the assay on RPMI-8226 was > 100 µM (inactive) each time. Moreover, the GI50 with SF-268, with SF-539, in the assay on SNB-78 and in the assay with UACC-257 was > 100 µM (inactive) in each case.
In the case of `N#CC(C(=O)/C(=N/NC(=O)c1ccccc1O)C(C#N)c1ccc(Br)cc1)c1ccc(Br)cc1` (configuration not stated), the GI50 with A498 was 13.7 µM (inactive); in the assay with COLO 205 it was 16.5 µM (inactive); with HCT-15, 9.08 µM; in the assay on HOP-92, 16.7 µM (inactive); in the assay on HT-29, 13.3 µM (inactive); with K562, 5.74 µM (inactive). Further, the GI50 is 13.5 µM (inactive) in the assay with OVCAR-3; 15.6 µM (inactive) in the assay on OVCAR-4; 6.43 µM (inactive) in the assay with OVCAR-8; > 10 µM (inactive) with SF-268; 10.6 µM (inactive) in the assay on SF-539; 2.99 µM (inactive) in the assay on SNB-75. The figures for the GI50 in the assay on SNB-78 and in the assay on UACC-257 were 4.75 µM (inactive) and 15.1 µM (inactive), respectively.
For the compound `CCOC(=N)CC(=O)Nc1cccc(Cl)c1`, the GI50 in the assay with A498, with CAKI-1, in the assay on COLO 205, with HL-60, with HT-29 and in the assay on K562 was > 100 µM (inactive) throughout. The GI50 with OVCAR-3, in the assay with OVCAR-4, with OVCAR-8, with SF-268, with SF-539 and in the assay with SNB-75 was > 100 µM (inactive) throughout. The GI50 in the assay with SNB-78 was 5.65 µM (inactive); in the assay with UACC-257, > 100 µM (inactive).
Regarding `COc1ccccc1NC(=O)CC(=O)N1N=C(c2ccccc2)C(/N=N/c2ccc(Cl)cc2)C1=O` (configuration not stated), the GI50 with A498 was 15.2 µM (inactive); in the assay with CAKI-1 it was 19.5 µM (inactive); in the assay with COLO 205 it was 71.4 µM (inactive); in the assay on HCT-15 it was 58.6 µM; with HL-60, 52 µM (inactive); in the assay with HT-29, 42.7 µM (inactive). For the same compound, the GI50 in the assay on K562 was 29 µM (inactive); in the assay with OVCAR-3 it was 28.4 µM (inactive); with OVCAR-4, 25.2 µM (inactive); in the assay with OVCAR-8 it was 41.8 µM (inactive); in the assay with RPMI-8226, > 100 µM (inactive); in the assay with SF-268, 50.2 µM (inactive). The GI50 in the assay with SF-539 was 36.8 µM (inactive); in the assay on SNB-75, 19.7 µM (inactive); in the assay on SNB-78, > 100 µM (inactive); with UACC-257 it was 65 µM (inactive).
With `Nc1c2ccccc2nc2c(C(=O)Nc3ccc(S(N)(=O)=O)cc3)cccc12`, the GI50 with A498 was > 100 µM (inactive); with CAKI-1, > 100 µM (inactive); with COLO 205, > 100 µM (inactive); in the assay with HCT-15 it was > 100 µM; in the assay on HT-29 it was > 100 µM (inactive); with K562, 28.6 µM (inactive). Besides, the GI50 in the assay on OVCAR-3 was 33.7 µM (inactive); in the assay with OVCAR-4, > 100 µM (inactive); with OVCAR-8, 57.9 µM (inactive); in the assay with RPMI-8226, 33.1 µM (inactive); in the assay on SF-268, 42.3 µM (inactive); in the assay on SF-539 it was 13.2 µM (inactive). Besides, the GI50 is 61.8 µM (inactive) in the assay with SNB-75, > 100 µM (inactive) in the assay with SNB-78 and > 100 µM (inactive) with UACC-257.
For the compound `CC1=C(C(=O)Nc2ccccc2C)C(c2ccccc2)C(C(=O)Nc2ccccc2C)=C(C)N1`, the GI50 in the assay with A498 was 29.7 µM (inactive); in the assay on CAKI-1, 24.9 µM (inactive); in the assay with COLO 205, 24.1 µM (inactive); with HCT-15 it was 40.6 µM; in the assay with HL-60, 15.2 µM (inactive); with HOP-92, 6.61 µM (inactive). Further, the GI50 with HT-29 is 34.7 µM (inactive); in the assay with K562, 22.6 µM (inactive); in the assay with OVCAR-3, 31.8 µM (inactive); with OVCAR-4, 28.5 µM (inactive); in the assay on OVCAR-8 it was 52 µM (inactive); with SF-268 it was > 100 µM (inactive). The GI50 with SF-539 was 60.4 µM (inactive); in the assay with SNB-75, 35.6 µM (inactive); with SNB-78, 32.9 µM (inactive); with UACC-257 it was 37.8 µM (inactive).
Take `COc1ccc(/C=C(/C(=O)O)c2cc(OC)c(OC)c(OC)c2)cc1`: the GI50 in the assay with A498 was 52.4 µM (inactive); with CAKI-1 it was 44.9 µM (inactive); in the assay with COLO 205 it was 33.3 µM (inactive); with HOP-92 it was > 100 µM (inactive); in the assay with HT-29, 42.1 µM (inactive); with K562 it was 38.5 µM (inactive). In addition, the GI50 in the assay on OVCAR-3 was 23.7 µM (inactive); in the assay on OVCAR-4 it was 41.4 µM (inactive); with OVCAR-8 it was 63.5 µM (inactive); with RPMI-8226, 33.8 µM (inactive); with SF-268 it was 70.1 µM (inactive); in the assay on SF-539, 19.3 µM (inactive). For the same compound, the values for the GI50 with SNB-75, in the assay on SNB-78 and in the assay on UACC-257 were 21.6 µM (inactive), 35.8 µM (inactive) and 31.5 µM (inactive), respectively.

(Values after ChEMBL document CHEMBL1201862, “PubChem BioAssay data set” (2004).)
